Assay results taken from patent EP0856511B1, “Calcium salt of indomethacin pentahydrate and its preparation” (Promindus (Actions Promotionnelles dans l'Industrie et le …, priority 1997, dated 1998).

What was measured:
[1] = Lethal dose 50 % (DL50) per os in the rat; assay type: in vivo
Description: (§1) En effet, les comparaisons respectives des DE50 (dose efficace 50 %) et DL50 (dose léthale 50 %) per os, chez le rat, de ladite indométacine calcique pentahydratée et de ladite indométacine libre sont nettement à l'avantage de ladite indométacine calcique.

[2] = Effective dose 50 % (DE50) per os in the rat; assay type: in vivo
Description: as §1

[3] = in vivo
[4] = Solubility description in water and organic solvents; assay type: physicochemical

Row | Compound | LD50 ([1]; in vivo, po, dose léthale 50 %, per os, rat) | ED50 ([2]; po, dose efficace 50 %, per os, rat) | DL50 ([1]; dose léthale 50 %, per os, rat) | toxicité par voie orale ([1]; par voie orale, compared with the acid form) | Index thérapeutique : DL50/DE50 ([1]; per os, rat, ratio DL50/DE50) | tolérance locale par voie rectale [3] | activité pharmacologique ([2]; compared with the acid form) | DE50 ([2]; dose efficace 50 %, per os, rat) | solubilité dans l'acétonitrile [4] | solubilité dans l'eau [4] | solubilité dans l'éther [4] | solubilité dans le chloroforme ([4]; chloroforme) | solubilité dans le diméthylformamide ([4]; diméthylformamide) | solubilité dans le tétrahydrofuranne ([4]; tétrahydrofuranne)
1 | COc1ccc2c(c1)c(CC(=O)O)c(C)n2C(=O)c1ccc(Cl)cc1 [Indométacine, acide 1-(p-chlorobenzoyl)-5-méthoxy-2-méthylindole-3-acétique, reference compound] | 28 mg/kg | 3 mg/kg |  |  |  |  |  |  |  |  |  |  |  | 
2 | indométacine calcique pentahydratée |  |  | 45 mg/kg | une toxicité diminuée | 18 | une meilleure tolérance locale | équivalente | 2,5 mg/kg | pratiquement insoluble | pratiquement insoluble | pratiquement insoluble | pratiquement insoluble | facilement soluble | soluble
